Measurements as given in patent US6528528B2 (Warner-Lambert Company, priority 1997, dated 2003).
Where two headings read alike, the source gives them in different places.

Tests used:
[1] = target: T1, rabbit reticulocyte 15-LO (Oryctolagus cuniculus, UniProt P12530); assay: Rabbit Reticulocyte 15-LO Assay (h15LO); format: biochemical; details: for IC50: 2U rabbit reticulocyte 15-LO, 174 μM linoleic acid, 15 minutes at 4° C.; for h15LO, value given as bare %: concentration not given
T1 construct: Fifteen-lipoxygenase was obtained from phenylhydrazine-treated rabbits and purified per the method of Rapoport; from tissue; host or cells: reticulocytes of phenylhydrazine-treated rabbits
T1 sequence (P12530 1-663): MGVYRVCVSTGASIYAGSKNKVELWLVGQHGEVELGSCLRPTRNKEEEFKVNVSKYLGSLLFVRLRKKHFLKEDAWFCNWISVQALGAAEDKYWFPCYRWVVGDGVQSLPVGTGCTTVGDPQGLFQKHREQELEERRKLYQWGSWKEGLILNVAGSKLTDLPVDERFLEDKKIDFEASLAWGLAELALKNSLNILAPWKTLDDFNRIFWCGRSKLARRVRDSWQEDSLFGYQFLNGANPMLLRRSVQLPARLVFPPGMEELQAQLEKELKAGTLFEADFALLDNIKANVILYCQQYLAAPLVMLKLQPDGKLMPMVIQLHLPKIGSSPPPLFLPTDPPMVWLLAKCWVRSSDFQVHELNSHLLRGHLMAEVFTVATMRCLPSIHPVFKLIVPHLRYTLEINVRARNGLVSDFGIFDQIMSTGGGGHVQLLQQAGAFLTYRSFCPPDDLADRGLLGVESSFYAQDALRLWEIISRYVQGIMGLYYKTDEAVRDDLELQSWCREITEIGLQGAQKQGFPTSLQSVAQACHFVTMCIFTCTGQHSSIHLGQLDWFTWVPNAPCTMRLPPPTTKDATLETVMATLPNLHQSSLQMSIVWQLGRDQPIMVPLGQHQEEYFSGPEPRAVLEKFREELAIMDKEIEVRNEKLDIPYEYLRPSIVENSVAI
Procedure, shortened: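 Linoleic acid oxidation to 13-HPODE measured at 4° C. over 15 minutes, using 174 μM substrate and 2U enzyme purified from phenylhydrazine-treated rabbits in PBS/0.2% Na cholate. Product peak areas calibrated with authentic 13-HODE; inhibition expressed versus maximal reaction.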

Row | SMILES | melting point | IC50 ([1]; Table 2) | other results
1 | COc1ccc(NC(=O)c2ccc(O)c(Nc3cc(Cl)cc(Cl)c3)c2)cc1 [Example 57, 3-(3,5-Dichloro-phenylamino)-4-hydroxy-N-(4-methoxyphenyl)-benzamide] | 186 to 187 °C | 165 nM | 
2 | COc1ccc(C(=O)Nc2ccc(F)c(F)c2)cc1N [Example 15, 3-Amino-4-methoxy-N-(3,4-difluorophenyl)-benzamide] | 171 to 172 °C |  | IC50 ([1]; Table 1): 9 nM
3 | COc1ccccc1Nc1cc(C(=O)Nc2ccccc2)ccc1OC [Example 29, 3-(2-Methoxy-phenylamino)-4-methoxy-N-phenyl-benzamide] | 155 to 156 °C | > 3000 nM | 
4 | COc1ccc(C(=O)Nc2cccnc2)cc1Nc1cccc(C(F)(F)F)c1 [Example 45, 4-Methoxy-3-(3-trifluoromethyl-phenylamino)-N-(3-pyridyl)-benzamide] | 184 to 185 °C | 440 nM | 
5 | COc1ccc(C(=O)Nc2ccccc2)cc1NC(=S)Nc1cccc(C(C)=O)c1 [Example 76, 3-[3-(3-Acetyl-phenyl)-thioureido]-4-methoxy-N-phenyl-benzamide] | 176 to 177 °C | 48 nM | 
6 | CCc1ccc(C(=O)Nc2ccccc2)cc1N [Example 17, 3-Amino-4-ethyl-N-phenyl-benzamide] | 111 to 113 °C |  | inhibition at 10 µM ([1]; Table 1, read-out: h15LO % Inhibition at 10 μM): 65%
7 | COc1ccc(C(=O)Nc2ccccc2)cc1NCc1ccc(OC)c(OC)c1 [Example 52, 3-(3,4-Dimethoxy-benzylamino)-4-methoxy-N-phenyl-benzamide] | 187 to 188 °C |  | inhibition at 10 µM ([1]; 0.25 h, Table 2, read-out: h15LO % @ 10 μM): 62%
8 | COc1ccc(NC(=O)Nc2ccccc2)cc1NC(=S)Nc1cc(Cl)cc(Cl)c1 [Example 86, 1-{3-[3-(3,5-Dichlorophenyl)-thioureido]-4-methoxyphenyl}-3-phenyl-urea] | 218 to 219 °C | 260 nM | 
9 | O=C(Nc1ccccc1)c1cccc(NC(=S)Nc2cc(Cl)cc(Cl)c2)c1 [Example 70, 3-[3-(3,5-Dichlorophenyl)-thioureido]-N-phenyl-benzamide] | 174 to 177 °C | 500 nM | 
10 | COc1ccc(C(=O)Nc2ccccc2)cc1Nc1cc(C)cc(C)c1 [Example 36, 3-(3,5-Dimethyl-phenylamino)-4-methoxy-N-phenyl-benzamide] | 198 to 199 °C | 11 nM | 
11 | COc1ccc(C(=O)Nc2ccccc2)cc1NC(=S)Nc1ccc(OC)c(OC)c1 [Example 72, 3-[3-(3,4-Dimethoxyphenyl)-thioureido]-4-methoxy-N-phenyl-benzamide] | 170 to 171 °C | 56 nM | 
12 | COc1ccc(C(=O)Nc2ccc(C)c(Cl)c2)cc1N [Example 12, 3-Amino-4-methoxy-N-(3-chloro-4-methylphenyl)-benzamide] | 153 to 157 °C |  | IC50 ([1]; Table 1): 73 nM
13 | COc1ccc(C(=O)Nc2ccccc2)cc1NC(=S)Nc1ccccc1 [Example 62, 4-Methoxy-N-phenyl-3-(3-phenyl-thioureido)-benzamide] | 174 to 176 °C | 70 nM | 
14 | COc1ccc(C(=O)Nc2ccc(F)cc2)cc1Nc1cc(C)cc(C)c1 [Example 46, 4-Methoxy-3-(3,5-dimethyl-phenylamino)-N-(4-fluorophenyl)-benzamide] | 199 to 200 °C | 20 nM | 
15 | Cc1ccc(NC(=O)c2ccc(O)c(Nc3cc(Cl)cc(Cl)c3)c2)cc1 [Example 58, 3-(3,5-Dichloro-phenylamino)-4-hydroxy-N-(4-methylphenyl)-benzamide] | 179 to 183 °C | 80 nM | 
16 | COc1ccc(NC(=O)c2ccc(O)c(Nc3cc(Cl)cc(Cl)c3)c2)cc1O [Example 59, 3-(3,5-Dichloro-phenylamino)-4-hydroxy-N-(3-hydroxy-4-methoxyphenyl)-benzamide] | 170 to 171 °C | 1460 nM | 
17 | COc1ccc(C(=O)Nc2cccnc2)cc1N [Example 5, 3-Amino-4-methoxy-N-(3-pyridyl)-benzamide] | 193 to 196 °C |  | IC50 ([1]; Table 1): 38 nM

Continued, in another order:

Row | melting point | IC50 ([1]; Table 2) | SMILES | other results
18 | 184 to 185 °C | 34 nM | COc1ccc(C(=O)Nc2cccc(Cl)c2)cc1NC(=S)Nc1ccc(F)cc1 [Example 108, N-(3-Chlorophenyl)-3-[3-(4-fluorophenyl)-thioureido]-4-methoxy-benzamide] | 
19 | 198 to 200 °C | 151 nM | COc1ccc(C(=O)Nc2ccccc2)cc1NS(=O)(=O)c1ccc(F)cc1F [Example 137, 3-(2,4-Difluoro-benzenesulfonylamino)-4-methoxy-N-phenyl-benzamide] | 
20 | 209 to 211 °C | 28 nM | COc1ccc(C(=O)Nc2ccccc2)cc1NS(=O)(=O)c1ccc(F)cc1 [Example 125, 3-(4-Fluoro-benzenesulfonylamino)-4-methoxy-N-phenyl-benzamide] | 
21 | 208 to 210 °C | 187 nM | COc1ccc(C(=O)Nc2ccccc2)cc1NS(=O)(=O)c1cccc([N+](=O)[O-])c1 [Example 122, 3-(3-Nitro-benzenesulfonylamino)-4-methoxy-N-phenyl-benzamide] | 
22 | 173 to 175 °C | 46 nM | O=C(Nc1ccccc1)c1ccc(F)c(NC(=S)Nc2cc(Cl)cc(Cl)c2)c1 [Example 96, 3-[3-(3,5-Dichlorophenyl)-thioureido]-4-fluoro-N-phenyl-benzamide] | 
23 | 203 to 205 °C | 11 nM | COc1ccc(C(=O)Nc2ccccc2)cc1NC(=S)Nc1cc(C)cc(C)c1 [Example 99, 3-[3-(3,5-Dimethylphenyl)-thioureido]-4-methoxy-N-phenyl-benzamide] | 
24 | 183 to 184 °C | 33 nM | COc1ccc(C(=O)Nc2ccccc2)cc1NC(=S)Nc1ccc([N+](=O)[O-])cc1 [Example 88, 4-Methoxy-3-[3-(4-nitrophenyl)-thioureido]-N-phenyl-benzamide] | 
25 | 179 to 180 °C | 82 nM | COc1ccc(C(=O)Nc2ccccc2)cc1NC(=S)Nc1ccc(N(C)C)cc1 [Example 93, 3-[3-(4-Dimethylaminophenyl)-thioureido]-4-methoxy-N-phenyl-benzamide] | 
26 | 168 to 171 °C |  | COc1ccc(C(=O)Nc2ccccc2)cc1NC(=O)CC(=O)OCc1ccccc1 [Example 252, (2-Methoxy-5-phenylcarbamoyl-phenylcarbamoyl)-acetic acid phenylmethyl Ester] | h15LO, value given as bare % ([1]; Table 2): 43%
27 | 153 to 154 °C | 1590 nM | O=C(Nc1ccc(F)cc1)c1ccc(OC(F)(F)F)c(NC(=S)Nc2cccc(C(F)(F)F)c2)c1 [Example 164] | 
28 | 105 to 108 °C |  | COc1ccc(CNc2ccccc2)cc1NS(=O)(=O)c1cc(Cl)cc(Cl)c1 [Example 209, 3,5-Dichloro-N-(2-methoxy-5-phenylaminomethyl-phenyl)-benzenesulfonamide] | h15LO, value given as bare % ([1]; Table 2): 80.94%
29 | 194 to 195 °C | 102 nM | COc1ccc(NC(=O)c2ccccc2)cc1NC(=S)Nc1cc(Cl)cc(Cl)c1 [Example 87, N-{^3-[^3-(3,5-Dichlorophenyl)-thioureido]-4-methoxy-phenyl}-benzamide] | 
30 | 182 to 183 °C | 79 nM | CCCCS(=O)(=O)Nc1cc(C(=O)Nc2ccccc2)ccc1OC [Example 129, 3-(Butane-1-sulfonylamino)-4-methoxy-N-phenyl-benzamide] | 
